# Read-outs that look alike come from different tables or passages of the source.
# Tested on: sulphate-reducing prokaryotes (SRP)
# Experimental: The bioreactor used was constructed from titanium; this construction eliminated the risk of any production of iron sulphides through corrosion, which in turn would react with injected THPS. […] The column was packed with low-iron sand (Fisher, UK) with a glass fibre plug at the base to prevent the draining of sand during filling. The column fittings (injection and production pipework) were constructed from 316 stainless steel (Swagelok).
# The column was maintained at 1000 psig (70 barg) and 24° C.±1° C. The pressure was held between the pump head and the proportional release valve. The use of 1-way valves in the injection head permitted disconnection and maintenance of the pump without depressurisation of the column.
# The pump used was a high-pressure liquid chromatography pump (PerkinElmer Series 100). The pump was operated in a continuous fashion at an injection rate of 1 mL/min, injecting into the head of the bioreactor.
# Injection fluid was prepared daily on workdays, with three days of fluid prepared on Friday to cover the weekend. During the week, a single pump was used on a continuous basis. Over the weekend, three pumps were used, cycling in three hour injection windows. The injection fluid was stored in a polyethylene terephthalate (PET) nitrogen-pressurised vessel at 2° C.±1° C.
# The North Sea seawater used throughout the study was collected from Bridlington, Yorkshire on a quarterly basis. It was de-oxygenated through nitrogen sparging over a 48 hour period. Metabolisable carbon was added to the seawater in the form of volatile fatty acids (VFA) in the ratio of 100 acetate:10 propionate:1 butyrate by weight. Acetate and propionate were added as salt in order to avoid acidification of the injection fluid, whilst butyrate was added as the acid. The pH of the injection fluid was between 7.5 and 8 before the addition of THPS. The VFA totalled 111 mg/L, which, if converted entirely to sulphide (i.e. none used for biomass growth), should permit the production of 67 mg/L H2S.
# The bioreactor was inoculated using a mixed consortia of prokaryotes obtained from North Sea seawater and North Sea oil reservoirs. Rawwater Engineering Company Limited (RECL) maintained a mixed consortia of sulphate-reducing prokaryotes (SRP) in bioreactors under the experimental conditions required for the project (24° C., 1000 psig). These bioreactors were used solely for inoculation purposes. Both bioreactors increased the chances of successfully inoculating new bioreactors, by limiting the changes in environmental conditions the microbes were subjected to and thus limiting stress. The column was inoculated with microbes, shut-in for a fortnight and operated under batch flow conditions (140 mL fluid per day in equally spaced thirty-minute injection windows) until SRP were known to be established through the production of hydrogen sulphide.
# Effluent samples were collected on a daily basis onto zinc acetate. This reacted with the volatile hydrogen sulphide to form stable zinc sulphide precipitate, which permitted analysis at a later time. All samples were analysed within six hours of collection. The samples were analysed through the standard methylene blue colourimetric procedure, which was calibrated monthly against the iodometric sulphide method.
# Three trials were conducted: • Trial 1—Starting with a dose of 30 mg/L THPS, the dose concentration of THPS was reduced in 10 mg/L steps until sulphide recovery was observed. […] This indicated the minimum starting concentration of THPS required to convert the SRP from normal activity to biostasis.
substance,measurement,setting,value
Tetrakis(hydroxymethyl)phosphonium sulphate [THPS],"period of continued low hydrogen sulphide after removal of THPS, before gradual rise","Trial 1, after 86 days total biocide injection, THPS removed entirely",25 to 27 days
same,increase in sulphide during dosing,"Trial 1, dose reduced to 10 mg/L, 14 days",no significant increase in sulphide was recorded
same,biological activity and sulphide production on introduction of THPS,"Trial 1, pre-soured bioreactor, 30 mg/L active THPS (60 mg/L Tolcide PS50A, incl. penetrant), continuous, 24 °C, 1000 psig",collapse in biological activity and sulphide production to sub-mg/L concentrations
same,biological activity and effluent sulphide on introduction of THPS,"Trial 2, 30 mg/L THPS plus penetrant, continuous",immediate collapse of biological activity and effluent sulphide
same,effluent sulphide during reduced dosing,"Trial 2, 20 and 10 mg/L THPS, biocide injected 91 days in total",remained suppressed
same,biostasis of the column,"Trial 3, 5 mg/L THPS plus penetrant, slow inhibited increase in effluent sulphide",insufficient to keep the entire column under biostasis
same,effluent sulphide,"Trial 3, dose increased to 20 mg/L THPS",the effluent sulphide collapsed and remained low
same,effluent sulphide,"Trial 3, dose increased via 10 mg/L to 15 mg/L THPS",appeared to stabilise the effluent sulphide
same,growth of the SRP population,"Trial 3, sour column, 5 mg/L THPS plus penetrant, continuous",rapidly halted the growth of the SRP population
